One test concerns MDA-MB-231. Description: Cell growth inhibition, CellTiter-Glo Luminescent Cell Viability Assay, MDA-MB-231. In kind it is cell-based. The note with it: Homo sapiens, MDA-MB-231 cells, 4 days incubation. The procedure: (§1) Cell growth inhibitory activity of representative Compounds of the Disclosure was determined in various cell lines using CellTiter-Glo® Luminescent Cell Viability Assay. Cells were seeded in 384-well white opaque cell culture plates at a density of 2,000 cells/well with serially diluted compounds and incubated at 37° C. in an atmosphere of 95% air and 5% CO2 for 4 days. Cell viability was determined using the CellTiter-Glo® Luminescent Cell Viability Assay Kit (Promega, Madison, Wis.) according to the manufacture's instruction. Briefly, a volume of CellTiter-Glo® Reagent equal to the volume of cell culture medium was added to each well, and then the plates were incubated at room temperature for 10-20 minutes. The luminescent signal was measured using a Tecan Infinite M1000 multimode microplate reader (Tecan, Morrisville, N.C.). The half maximal inhibitory concentration (IC50) was calculated using the GraphPad Prism 5 software (GraphPad Software, La Jolla, Calif.).
A general note: Cellular ATP, detected with luciferase, serves as a proxy for viable cell number.

The next test concerns MOLM-13. The test can be described thus: Cell growth inhibition, CellTiter-Glo Luminescent Cell Viability Assay, MOLM-13. In kind it is cell-based. The note with it: Homo sapiens, MOLM-13 cells, 4 days incubation. On the procedure: as §1

In general, IC50 refers to the concentration that inhibits the measured activity by half. Low values mean greater potency in that assay, high ones weaker potency in that assay. On to `Cc1c(C#Cc2ccc(OCCC#Cc3cccc4c3CN(C3CCC(=O)NC3=O)C4=O)cn2)sc2c1C(c1ccc(Cl)cc1)=NCc1nnc(C)n1-2` (stereo not drawn) [Cpd. No. 15, 3-(4-(4-((6-((4-(4-chlorophenyl)-3,9-dimethyl-6H-thieno[3,2-f][1,2,4]triazolo[4,3-a][1,4]diazepin-2-yl)ethynyl)pyridin-3-yl)oxy)but-1-yn-1-yl)-1-oxoisoindolin-2-yl)piperidine-2,6-dione], for which the results for the half-maximal inhibitory concentration (IC50) with MDA-MB-231 (96 h) and in the test on MOLM-13 (96 h) were 39.1 nM and 82.6 nM, respectively.
As to `Cc1c(C#Cc2ccc(OCCC#Cc3cccc4c3CN(C3CCC(=O)NC3=O)C4=O)cn2)sc2c1C(c1ccc(Cl)cc1)=N[C@@H](C)c1nnc(C)n1-2` (stereo partly drawn) [Cpd. No. 16, 3-(4-(4-((6-(((S)-4-(4-chlorophenyl)-3,6,9-trimethyl-6H-thieno[3,2-f][1,2,4]triazolo[4,3-a][1,4]diazepin-2-yl)ethynyl)pyridin-3-yl)oxy)but-1-yn-1-yl)-1-oxoisoindolin-2-yl)piperidine-2,6-dione], the 50% inhibitory concentration (IC50) with MDA-MB-231 (MDA-MB-231, 96 h) came to 1.7 nM; in the test on MOLM-13 (MOLM-13, 96 h), 1.1 nM.
In the same order, the values of `Cc1c(C#Cc2ccc(CCCCNc3cccc4c3CN(C3CCC(=O)NC3=O)C4=O)nc2)sc2c1C(c1ccc(Cl)cc1)=NCc1nnc(C)n1-2` (stereo not drawn) [Cpd. No. 17, 3-(4-((4-(5-((4-(4-chlorophenyl)-3,9-dimethyl-6H-thieno[3,2-f][1,2,4]triazolo[4,3-a][1,4]diazepin-2-yl)ethynyl)pyridin-2-yl)butyl)amino)-1-oxoisoindolin-2-yl)piperidine-2,6-dione] are 11.1 nM and 10.3 nM.
In the same order, the values of `Cc1c(C#Cc2ccc(CCCCNc3cccc4c3CN(C3CCC(=O)NC3=O)C4=O)nc2)sc2c1C(c1ccc(Cl)cc1)=N[C@@H](C)c1nnc(C)n1-2` (stereo partly drawn) [Cpd. No. 18, 3-(4-((4-(5-(((S)-4-(4-chlorophenyl)-3,6,9-trimethyl-6H-thieno[3,2-f][1,2,4]triazolo[4,3-a][1,4]diazepin-2-yl)ethynyl)pyridin-2-yl)butyl)amino)-1-oxoisoindolin-2-yl)piperidine-2,6-dione] are 0.43 nM and 0.23 nM.
With `Cc1c(C#Cc2cnn(CCCCNc3cccc4c3C(=O)N(C3(F)CCC(=O)NC3=O)C4=O)c2)sc2c1C(c1ccc(Cl)cc1)=NCc1nnc(C)n1-2` (stereo not drawn) [compound 144, 4-((4-(4-((4-(4-chlorophenyl)-3,9-dimethyl-6H-thieno[3,2-f][1,2,4]triazolo[4,3-a][1,4]diazepin-2-yl)ethynyl)-1H-pyrazol-1-yl)butyl)amino)-2-(3-fluoro-2,6-dioxopiperidin-3-yl)isoindoline-1,3-dione], the IC50 in the test on MDA-MB-231 (MDA-MB-231, 96 h) was 10.1 nM; in the test on MOLM-13 (MOLM-13, 96 h) it was 6.8 nM.
In the same order, the values of `Cc1c(C#Cc2cnn(CCCCOc3cccc4c3CN(C3CCC(=O)NC3=O)C4=O)c2)sc2c1C(c1ccc(Cl)cc1)=NCc1nnc(C)n1-2` (stereo not drawn) [compound 146, 3-(4-(4-(4-((4-(4-chlorophenyl)-3,9-dimethyl-6H-thieno[3,2-f][1,2,4]triazolo[4,3-a][1,4]diazepin-2-yl)ethynyl)-1H-pyrazol-1-yl)butoxy)-1-oxoisoindolin-2-yl)piperidine-2,6-dione] are 1.2 nM and 1 nM.
In the same order, the values of `Cc1c(C#Cc2cnn(CCCN3CCC(Nc4cccc5c4CN(C4CCC(=O)NC4=O)C5=O)CC3)c2)sc2c1C(c1ccc(Cl)cc1)=NCc1nnc(C)n1-2` (stereo not drawn) [compound 148, 3-(4-((1-(3-(4-((4-(4-chlorophenyl)-3,9-dimethyl-6H-thieno[3,2-f][1,2,4]triazolo[4,3-a][1,4]diazepin-2-yl)ethynyl)-1H-pyrazol-1-yl)propyl)piperidin-4-yl)amino)-1-oxoisoindolin-2-yl)piperidine-2,6-dione] are 0.4 nM and 0.24 nM.
For `Cc1c(C#Cc2cnn(CCCCN3CCC(Nc4cccc5c4CN(C4CCC(=O)NC4=O)C5=O)CC3)c2)sc2c1C(c1ccc(Cl)cc1)=NCc1nnc(C)n1-2` (stereo not drawn) [compound 149, 3-(4-((1-(4-(4-((4-(4-chlorophenyl)-3,9-dimethyl-6H-thieno[3,2-f][1,2,4]triazolo[4,3-a][1,4]diazepin-2-yl)ethynyl)-1H-pyrazol-1-yl)butyl)piperidin-4-yl)amino)-1-oxoisoindolin-2-yl)piperidine-2,6-dione], in that order: 0.67 nM and 0.42 nM.
Regarding `Cc1c(C#Cc2cnn(CCn3cnc(CNc4cccc5c4CN(C4CCC(=O)NC4=O)C5=O)c3)c2)sc2c1C(c1ccc(Cl)cc1)=NCc1nnc(C)n1-2` (stereo not drawn) [compound 150, 3-(4-(((1-(2-(4-((4-(4-chlorophenyl)-3,9-dimethyl-6H-thieno[3,2-f][1,2,4]triazolo[4,3-a][1,4]diazepin-2-yl)ethynyl)-1H-pyrazol-1-yl)ethyl)-1H-imidazol-4-yl)methyl)amino)-1-oxoisoindolin-2-yl)piperidine-2,6-dione], the half-maximal inhibitory concentration (IC50) was more than 100 nM in the test on MDA-MB-231 (MDA-MB-231, 96 h) and more than 100 nM with MOLM-13 (MOLM-13, 96 h).
For the compound `Cc1c(C#Cc2cnn(CCCn3cnc(CNc4cccc5c4CN(C4CCC(=O)NC4=O)C5=O)c3)c2)sc2c1C(c1ccc(Cl)cc1)=NCc1nnc(C)n1-2` (stereo not drawn) [compound 151, 3-(4-(((1-(3-(4-((4-(4-chlorophneyl)-3,9-dimethyl-6H-thieno[3,2-f][1,2,4]triazolo[4,3-a][1,4]diazepin-2-yl)ethynyl)-1H-pyrazol-1-yl)propyl)-1H-imidazol-4-yl)methyl)amino)-1-oxoisoindolin-2-yl)piperidine-2,6-dione], the IC50 in the test with MDA-MB-231 (MDA-MB-231, 96 h) was more than 100 nM; in the test on MOLM-13 (MOLM-13, 96 h), more than 100 nM.
As to `Cc1c(C#Cc2cnn(CCCCn3cnc(CNc4cccc5c4CN(C4CCC(=O)NC4=O)C5=O)c3)c2)sc2c1C(c1ccc(Cl)cc1)=NCc1nnc(C)n1-2` (stereo not drawn) [compound 152, 3-(4-(((1-(4-(4-((4-(4-chlorophenyl)-3,9-dimethyl-6H-thieno[3,2-f][1,2,4]triazolo[4,3-a][1,4]diazepin-2-yl)ethynyl)-1H-pyrazol-1-yl)butyl)-1H-imidazol-4-yl)methyl)amino)-1-oxoisoindolin-2-yl)piperidine-2,6-dione], the 50% inhibitory concentration (IC50) stood at 12.2 nM in the test with MDA-MB-231 (MDA-MB-231, 96 h) and 8.7 nM in the test on MOLM-13 (MOLM-13, 96 h).
For `Cc1c(C#Cc2cnn(CCn3cnc(COc4cccc5c4C(=O)N(C4CCC(=O)NC4=O)C5=O)c3)c2)sc2c1C(c1ccc(Cl)cc1)=NCc1nnc(C)n1-2` (stereo not drawn) [compound 153, 4-((1-(2-(4-((4-(4-chlorophenyl)-3,9-dimethyl-6H-thieno[3,2-f][1,2,4]triazolo[4,3-a][1,4]diazepin-2-yl)ethynyl)-1H-pyrazol-1-yl)ethyl)-1H-imidazol-4-yl)methoxy)-2-(2,6-dioxopiperidin-3-yl)isoindoline-1,3-dione], in that order: more than 100 nM and more than 100 nM.
For `Cc1c(C#Cc2cnn(CCn3cnc(COc4cccc5c4CN(C4CCC(=O)NC4=O)C5=O)c3)c2)sc2c1C(c1ccc(Cl)cc1)=NCc1nnc(C)n1-2` (stereo not drawn) [compound 154, 3-(4-((1-(2-(4-((4-(4-chlorophenyl)-3,9-dimethyl-6H-thieno[3,2-f][1,2,4]triazolo[4,3-a][1,4]diazepin-2-yl)ethynyl)-1H-pyrazol-1-yl)ethyl)-1H-imidazol-4-yl)methoxy)-1-oxoisoindolin-2-yl)piperidine-2,6-dione], in that order: more than 100 nM and more than 100 nM.
`Cc1c(C#Cc2cnn(CCCN3CC(Nc4cccc5c4CN(C4CCC(=O)NC4=O)C5=O)C3)c2)sc2c1C(c1ccc(Cl)cc1)=N[C@@H](C)c1nnc(C)n1-2` (stereo partly drawn) [compound 177, 3-(4-((1-(3-(4-(((S)-4-(4-chlorophenyl)-3,6,9-trimethyl-6H-thieno[3,2-f][1,2,4]triazolo[4,3-a][1,4]diazepin-2-yl)ethynyl)-1H-pyrazol-1-yl)propyl)azetidin-3-yl)amino)-1-oxoisoindolin-2-yl)piperidine-2,6-dione] came in with an IC50 in the test on MOLM-13 (MOLM-13, 96 h) of 0.6 nM. That is a sub-nanomolar value.
`Cc1c(C#Cc2cnn(CCOCCOCCNc3cccc4c3CN(C3CCC(=O)NC3=O)C4=O)c2)sc2c1C(c1ccc(Cl)cc1)=N[C@@H](C)c1nnc(C)n1-2` (stereo partly drawn) [compound 188, 3-(4-((2-(2-(2-(4-(((S)-4-(4-chlorophenyl)-3,6,9-trimethyl-6H-thieno[3,2-f][1,2,4]triazolo[4,3-a][1,4]diazepin-2-yl)ethynyl)-1H-pyrazol-1-yl)ethoxy)ethoxy)ethyl)amino)-1-oxoisoindolin-2-yl)piperidine-2,6-dione] came in with a 50% inhibitory concentration (IC50) in the test with MDA-MB-231 (MDA-MB-231, 96 h) of 1.7 nM. This counts as single-digit nanomolar.
Take `Cc1ncsc1-c1ccc([C@H](C)NC(=O)[C@@H]2COCCN2C(=O)[C@@H](NC(=O)COCCCn2cc(C#Cc3sc4c(c3C)C(c3ccc(Cl)cc3)=N[C@@H](C)c3nnc(C)n3-4)cn2)C(C)(C)C)cc1` [compound 202, (S)-4-((S)-2-(2-(3-(4-(((S)-4-(4-chlorophenyl)-3,6,9-trimethyl-6H-thieno[3,2-f][1,2,4]triazolo[4,3-a][1,4]diazepin-2-yl)ethynyl)-1H-pyrazol-1-yl)propoxy)acetamido)-3,3-dimethylbutanoyl)-N-((S)-1-(4-(4-methylthiazol-5-yl)phenyl)ethyl)morpholine-3-carboxamide]: in the test on MOLM-13 (MOLM-13, 96 h), the midpoint of inhibition, the IC50, lay at 91.6 nM.
In the test on MDA-MB-231 (MDA-MB-231, 96 h), `Cc1ncsc1-c1ccc([C@H](C)NC(=O)[C@@H]2C[C@@H](F)CN2C(=O)[C@@H](NC(=O)COCCCn2cc(C#Cc3sc4c(c3C)C(c3ccc(Cl)cc3)=N[C@@H](C)c3nnc(C)n3-4)cn2)C(C)(C)C)cc1` [compound 203] displayed a 50% inhibitory concentration (IC50) of 37.5 nM. That is a double-digit nanomolar value.

(Values after patent US10975093B2, “Fused 1,4-diazepines as BET protein degraders” (THE REGENTS OF THE UNIVERSITY OF MICHIGAN, priority 2016, dated 2021).)
